Data published in publication PMC12254823 (Acta Pharmaceutica Sinica. B, 2025).
“And” between values parts separate entries of the source, which are not always exact repeats. Equal entries are not always repeated. Where two headings read alike, the source gives them in different places.

Experiments:
[1] = test system: A/WSN/33(H1N1) virus; assay: microbe, parasite or virus in culture; assay type: cell-based, influenza A virus; details: for inhibition at 100 µM: read-out: %-inhibition in viral yield reduction assay screening; for EC50: read-out: EC50 viral yield assay
[2] = in vitro; details: dog
[3] = test system: A/HK/1/68(H3N2); assay: microbe, parasite or virus in culture; assay type: cell-based; details: Influenza A virus, H3N2, read-out: EC50 viral yield reduction assay
[4] = test system: A/California/7/09(H1N1pdm); assay: microbe, parasite or virus in culture; assay type: cell-based; details: Influenza A virus, read-out: EC50 viral yield reduction assay
[5] = test system: B/Florida/04/2006; assay: microbe, parasite or virus in culture; assay type: cell-based; details: Influenza B virus, read-out: EC50 viral yield reduction assay
[6] = test system: H5 PA-PB1 heterodimeric complex; assay type: biochemical, influenza A virus
[7] = target: H1 polymerase (Influenza A virus, UniProt P15659); assay: cell-based; set-up: species or system A/WSN/33(H1N1); details: EC50 minigenome luciferase reporter assay
[8] = Influenza A virus, H1N1|WSN, MDCK

With `Cc1ccccc1NCC(=O)Nc1ccccc1C(=O)NCc1cccc2cn[nH]c12` [Compound 1, N-[(1H-Indazol-7-yl)methyl]-2-[2-(o-tolylamino)acetamido]benzamide] the inhibition at 100 µM [1, 8] was 25% and the CC50 [2] was > 100 µM.
In the case of `Cc1ccc(NCC(=O)Nc2ccccc2C(=O)NCc2cccc3cn[nH]c23)cc1` [Compound 2, N-[(1H-Indazol-7-yl)methyl]-2-[2-(p-tolylamino)acetamido]benzamide], the inhibition at 100 µM [1, 8] is reported as 10.2% and the CC50 [2] is reported as > 100 µM.
For `Cc1cccc(NCC(=O)Nc2ccccc2C(=O)NCc2cccc3cn[nH]c23)c1` [Compound 3, N-[(1H-Indazol-7-yl)methyl]-2-[2-(m-tolylamino)acetamido]benzamide], the inhibition at 100 µM [1, 8] was 18.6% and the CC50 [2] was > 100 µM.
With `O=C(CNC1CCCCC1)Nc1ccccc1C(=O)NCc1cccc2cn[nH]c12` [Compound 4, N-[(1H-Indazol-7-yl)methyl]-2-[2-(cyclohexylamino)acetamido]benzamide] the inhibition at 100 µM [1, 8] was < 2% and the CC50 [2] was > 100 µM.
In the case of `O=C(CN1CCSCC1)Nc1ccccc1C(=O)NCc1cccc2cn[nH]c12` [Compound 5, N-[(1H-Indazol-7-yl)methyl]-2-[2-(thiomorpholin-4-yl)acetamido]benzamide], the inhibition at 100 µM [1, 8] is reported as < 2% and the CC50 [2] is reported as > 100 µM.
For `O=C(CNc1ccc(Cl)cc1)Nc1ccccc1C(=O)NCc1cccc2cn[nH]c12` [Compound 6, N-[(1H-Indazol-7-yl)methyl]-2-{2-[(4-chlorophenyl)amino]acetamido}benzamide], the inhibition at 100 µM [1, 8] was < 2% and the CC50 [2] was > 100 µM.
In the case of `O=C(CNCc1ccccc1)Nc1ccccc1C(=O)NCc1cccc2cn[nH]c12` [Compound 7, N-[(1H-Indazol-7-yl)methyl]-2-[2-(benzylamino)acetamido]benzamide], the inhibition at 100 µM [1, 8] is reported as < 2% and the CC50 [2] is reported as > 50 µM.
With `O=C(CN1CCOCC1)Nc1ccccc1C(=O)NCc1cccc2cn[nH]c12` [Compound 8, N-[(1H-Indazol-7-yl)methyl]-2-(2-morpholinoacetamido)benzamide] the inhibition at 100 µM [1, 8] was < 2% and the CC50 [2] was > 100 µM.
For `O=C(/C=C/c1ccc(Br)cc1)NCc1cccc2cn[nH]c12` [Compound 9, (E)-N-[(1H-Indazol-7-yl)methyl]-3-(4-bromophenyl)acrylamide], the inhibition at 100 µM [1, 8] was < 2% and the CC50 [2] was > 100 µM.
With `O=C(/C=C/c1ccc(Cl)cc1)NCc1cccc2cn[nH]c12` [Compound 10, (E)-N-[(1H-Indazol-7-yl)methyl]-3-(4-chlorophenyl)acrylamide] the inhibition at 100 µM [1, 8] was < 2% and the CC50 [2] was > 100 µM.
With `O=C(/C=C/c1ccc(C(F)(F)F)cc1)NCc1cccc2cn[nH]c12` [Compound 11, (E)-N-[(1H-Indazol-7-yl)methyl]-3-[4-(trifluoromethyl)phenyl]acrylamide] the inhibition at 100 µM [1, 8] was < 2% and the CC50 [2] was > 100 µM.
With `O=C(/C=C/c1ccc([N+](=O)[O-])cc1)NCc1cccc2cn[nH]c12` [Compound 12, (E)-N-[(1H-Indazol-7-yl)methyl]-3-(4-nitrophenyl)acrylamide] the inhibition at 100 µM [1, 8] was 37.3% and the CC50 [2] was > 100 µM.
For `O=C(/C=C/c1ccc(F)cc1)NCc1cccc2cn[nH]c12` [Compound 13, (E)-N-[(1H-Indazol-7-yl)methyl]-3-(4-fluorophenyl)acrylamide], the inhibition at 100 µM [1, 8] was 30.5% and the CC50 [2] was > 100 µM.
In the case of `COc1ccc(/C=C/C(=O)NCc2cccc3cn[nH]c23)cc1` [Compound 14, (E)-N-[(1H-Indazol-7-yl)methyl]-3-(4-methoxyphenyl)acrylamide], the inhibition at 100 µM [1, 8] is reported as 48.4% and the CC50 [2] is reported as > 100 µM.
For `O=C(/C=C/c1ccc(F)c(F)c1)NCc1cccc2cn[nH]c12` [Compound 15, (E)-N-[(1H-Indazol-7-yl)methyl]-3-(3,4-difluorophenyl)acrylamide], the inhibition at 100 µM [1, 8] was 44.1% and the CC50 [2] was > 100 µM.
For `O=C(/C=C/c1ccncc1)NCc1cccc2cn[nH]c12` [Compound 16, (E)-N-[(1H-Indazol-7-yl)methyl]-3-(pyridin-4-yl)acrylamide], the inhibition at 100 µM [1, 8] was 48.2% and the CC50 [2] was > 100 µM.
For `O=C(/C=C/c1ccco1)NCc1cccc2cn[nH]c12` [Compound 17, (E)-N-[(1H-Indazol-7-yl)methyl]-3-(furan-2-yl)acrylamide], the inhibition at 100 µM [1, 8] was 33.9% and the CC50 [2] was > 100 µM.
With `O=C(/C=C/c1cccs1)NCc1cccc2cn[nH]c12` [Compound 18, (E)-N-[(1H-Indazol-7-yl)methyl]-3-(thiophen-2-yl)acrylamide] the inhibition at 100 µM [1, 8] was < 2% and the CC50 [2] was > 100 µM.
With `S=C(NCc1cccc2cn[nH]c12)Nc1ccccc1` [Compound 19, 1-[(1H-Indazol-7-yl)methyl]-3-phenylthiourea] the inhibition at 100 µM [1, 8] was 25% and the CC50 [2] was > 100 µM.
For `Cc1ccc(NC(=S)NCc2cccc3cn[nH]c23)cc1` [Compound 20, 1-[(1H-Indazol-7-yl)methyl]-3-(p-tolyl)thiourea], the inhibition at 100 µM [1, 8] was < 2% and the CC50 [2] was > 100 µM.
With `S=C(NCc1cccc2cn[nH]c12)Nc1cccc(Cl)c1` [Compound 21, 1-[(1H-Indazol-7-yl)methyl]-3-(3-chlorophenyl)thiourea] the inhibition at 100 µM [1, 8] was 37.5% and the CC50 [2] was > 25 µM.
With `S=C(NCc1cccc2cn[nH]c12)Nc1ccc(Cl)cc1` [Compound 22, 1-[(1H-Indazol-7-yl)methyl]-3-(4-chlorophenyl)thiourea] the inhibition at 100 µM [1, 8] was 16.9% and the CC50 [2] was > 100 µM.
With `S=C(NCc1cccc2cn[nH]c12)Nc1cccc(Cl)c1Cl` [Compound 23, 1-[(1H-Indazol-7-yl)methyl]-3-(2,3-dichlorophenyl)thiourea] the inhibition at 100 µM [1, 8] was < 2% and the CC50 [2] was > 100 µM.
With `COc1ccc(NC(=S)NCc2cccc3cn[nH]c23)cc1OC` [Compound 24, 1-[(1H-Indazol-7-yl)methyl]-3-(3,4-dimethoxyphenyl)thiourea] the “%-inhibition in viral yield reduction assay screening” value [1] was 99.9%, the inhibition at 100 µM [1, 8] was > 90% and the EC50 [3] was 0.54 µM. For the same compound, the EC50 [4] was 0.746 µM, the EC50 [5] was 0.23 µM and the “PA-PB1 complex co-immunoprecipitated compared to DMSO control” value [6] was 64.5% ± 6.2% and 64.5%. For the same compound, the CC50 [2] was > 100 µM.
In the case of `S=C(NCc1cccc2cn[nH]c12)Nc1ccc(I)cc1` [Compound 25, 1-[(1H-Indazol-7-yl)methyl]-3-(4-iodophenyl)thiourea], the inhibition at 100 µM [1, 8] is reported as 74.4% and the CC50 [2] is reported as > 100 µM.
For `FC(F)(F)Oc1ccc(NC(=S)NCc2cccc3cn[nH]c23)cc1` [Compound 26, 1-[(1H-Indazol-7-yl)methyl]-3-[4-(trifluoromethoxy)phenyl]thiourea], the inhibition at 100 µM [1, 8] was < 2% and the CC50 [2] was > 100 µM.
With `FC(F)(F)c1ccc(NC(=S)NCc2cccc3cn[nH]c23)cc1` [Compound 27, 1-[(1H-Indazol-7-yl)methyl]-3-[4-(trifluoromethyl)phenyl]thiourea] the “%-inhibition in viral yield reduction assay screening” value [1] was 94.9%, the “selectivity index (CC50/EC50)” value [1] was > 12.5 and the inhibition at 100 µM [1, 8] was > 90%. For the same compound, the EC50 [1, 8] was 8.03 µM, the EC50 [1] was 8.03 µM and the CC50 [2] was > 100 µM.
For `S=C(NCc1ccccc1)NCc1cccc2cn[nH]c12` [Compound 28, 1-[(1H-Indazol-7-yl)methyl]-3-benzylthiourea], the inhibition at 100 µM [1, 8] was < 2% and the CC50 [2] was > 100 µM.
In the case of `Fc1ccc(NC(=S)NCc2cccc3cn[nH]c23)cc1` [Compound 29, 1-[(1H-Indazol-7-yl)methyl]-3-(4-fluorophenyl)thiourea], the inhibition at 100 µM [1, 8] is reported as < 2% and the CC50 [2] is reported as > 100 µM.
For `S=C(NCc1cccc2cn[nH]c12)Nc1ccc(Br)cc1` [Compound 30, 1-[(1H-Indazol-7-yl)methyl]-3-(4-bromophenyl)thiourea], the inhibition at 100 µM [1, 8] was < 2% and the CC50 [2] was > 100 µM.
With `N#Cc1ccc(NC(=S)NCc2cccc3cn[nH]c23)cc1` [Compound 31, 1-[(1H-indazol-7-yl)methyl]-3-(4-cyanophenyl)thiourea] the “%-inhibition in viral yield reduction assay screening” value [1] was 99.9%, the “selectivity index (CC50/EC50)” value [1] was > 1.73 and the inhibition at 100 µM [1, 8] was > 90%. For the same compound, the EC50 [1, 8] was 14.6 µM, the EC50 [1] was 14.6 µM and the CC50 [2] was > 25 µM.
For `COC(=O)OCOc1c2n(ccc1=O)N([C@@H]1c3ccccc3SCc3c1ccc(F)c3F)[C@@H]1COCCN1C2=O` [baloxavir marboxil, reference compound], the EC50 [1] was 0.00095 µM.
`NC(=O)c1nc(F)c[nH]c1=O` [favipiravir, reference compound] gave an EC50 [1] of 1.57 µM and an EC50 [7] of 0.441 µM.
